Results reported in patent US10759783B2, “Biaryl inhibitors of Bruton'S tyrosine kinase” (BIOGEN MA INC., priority 2013, dated 2020).

Legend:
[1] = biological target: T1, BTK enzyme (Homo sapiens, UniProt Q06187); assay: In vitro BTK kinase assay: BTK-POLYGAT-LS assay; type: biochemical; conditions: ATP 10 μM, read-out: IC50 (10uMATP)
T1 construct: purchased Upstate 14-552
Method in brief: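 Human BTK activity was measured with final 10 μM ATP and 100 nM polyGAT substrate in pH 7.5 Tris buffer with 10 mM MgCl2, DTT, Triton X-100 and casein.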

[2] = biological target: BTK (phospho-BTK) in human whole blood (Homo sapiens, UniProt Q06187); assay: In vitro PD assay in human whole blood (pBTK assay)
Chain of BTK (phospho-BTK) in human whole blood (Q06187 whole entry): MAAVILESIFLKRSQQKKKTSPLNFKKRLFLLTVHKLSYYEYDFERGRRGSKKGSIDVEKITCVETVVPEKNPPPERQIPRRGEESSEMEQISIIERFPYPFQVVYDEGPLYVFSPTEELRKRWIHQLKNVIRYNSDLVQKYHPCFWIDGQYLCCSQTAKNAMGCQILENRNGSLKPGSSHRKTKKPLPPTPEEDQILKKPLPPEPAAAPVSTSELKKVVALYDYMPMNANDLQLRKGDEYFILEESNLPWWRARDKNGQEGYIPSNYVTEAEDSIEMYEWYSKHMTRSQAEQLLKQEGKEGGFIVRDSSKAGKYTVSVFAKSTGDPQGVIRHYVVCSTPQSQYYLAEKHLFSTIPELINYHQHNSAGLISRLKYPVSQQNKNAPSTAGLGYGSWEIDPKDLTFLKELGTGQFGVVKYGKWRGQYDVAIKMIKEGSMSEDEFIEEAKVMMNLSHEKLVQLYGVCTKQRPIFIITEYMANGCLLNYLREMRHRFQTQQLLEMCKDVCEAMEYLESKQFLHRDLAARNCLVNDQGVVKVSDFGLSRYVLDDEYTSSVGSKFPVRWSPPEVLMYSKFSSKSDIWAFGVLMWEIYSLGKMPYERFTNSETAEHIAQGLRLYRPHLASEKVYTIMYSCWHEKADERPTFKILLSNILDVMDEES

T1 sequence (Q06187 whole entry): as above

Row | SMILES | IC50 [1] [nM] | IC50 [2] [nM]
1 | CC(C)OC1CN(C(=O)NC2CCCCc3cc(-c4ccnc(Nc5cnn(CCO)c5)n4)ccc32)C1 (stereo not drawn) [Example I-168, N-(2-(2-((1-(2-hydroxyethyl)-1H-pyrazol-4-yl)amino)pyrimidin-4-yl)-6,7,8,9-tetrahydro-5H-benzo[7]annulen-5-yl)-3-isopropoxyazetidine-1-carboxamide] | < 10 | < 500
2 | CC(C)OC1CN(C(=O)N[C@@H]2CCCCc3cc(-c4ccnc(Nc5cnn(CCO)c5)n4)ccc32)C1 [Example I-169, (R)—N-(2-(2-((1-(2-hydroxyethyl)-1H-pyrazol-4-yl)amino)pyrimidin-4-yl)-6,7,8,9-tetrahydro-5H-benzo[7]annulen-5-yl)-3-isopropoxyazetidine-1-carboxamide] | < 10 | < 500
3 | COCCn1cc(Nc2nccc(-c3ccc4c(c3)CCCCC4NC(=O)N3CC(OC(C)C)C3)n2)cn1 (stereo not drawn) [Example I-171, 3-isopropoxy-N-(2-(2-((1-(2-methoxyethyl)-1H-pyrazol-4-yl)amino)pyrimidin-4-yl)-6,7,8,9-tetrahydro-5H-benzo[7]annulen-5-yl)azetidine-1-carboxamide] | < 10 | < 500
4 | CCn1cc(Nc2nccc(-c3ccc4c(c3)CCCCC4NC(=O)N3CC(OC(C)(C)C)C3)n2)cn1 (stereo not drawn) [Example I-173, 3-(tert-butoxy)-N-(2-(2-((1-ethyl-1H-pyrazol-4-yl)amino)pyrimidin-4-yl)-6,7,8,9-tetrahydro-5H-benzo[7]annulen-5-yl)azetidine-1-carboxamide] | < 10 | < 500
5 | CC(C)n1cc(Nc2nccc(-c3ccc4c(c3)CCCCC4NC(=O)N3CC(OC(C)(C)C)C3)n2)cn1 (stereo not drawn) [Example I-174, 3-(tert-butoxy)-N-(2-(2-((1-isopropyl-1H-pyrazol-4-yl)amino)pyrimidin-4-yl)-6,7,8,9-tetrahydro-5H-benzo[7]annulen-5-yl)azetidine-1-carboxamide] | < 10 | < 500
6 | COCCn1cc(Nc2nccc(-c3ccc4c(c3)CCCCC4NC(=O)N3CC(OC(C)(C)C)C3)n2)cn1 (stereo not drawn) [Example I-175, 3-(tert-butoxy)-N-(2-(2-((1-(2-methoxyethyl)-1H-pyrazol-4-yl)amino)pyrimidin-4-yl)-6,7,8,9-tetrahydro-5H-benzo[7]annulen-5-yl)azetidine-1-carboxamide] | < 10 | < 500
7 | COCCn1cc(Nc2nccc(-c3ccc4c(c3)CCCC[C@H]4NC(=O)N3CC(OC(C)(C)C)C3)n2)cn1 [Example I-176, (R)-3-(tert-butoxy)-N-(2-(2-((1-(2-methoxyethyl)-1H-pyrazol-4-yl)amino)pyrimidin-4-yl)-6,7,8,9-tetrahydro-5H-benzo[7]annulen-5-yl)azetidine-1-carboxamide] | < 10 | < 500
8 | CC(C)(C)OC1CN(C(=O)NC2CCCCc3cc(-c4ccnc(Nc5cnn(CCO)c5)n4)ccc32)C1 (stereo not drawn) [Example I-178, 3-(tert-butoxy)-N-(2-(2-((1-(2-hydroxyethyl)-1H-pyrazol-4-yl)amino)pyrimidin-4-yl)-6,7,8,9-tetrahydro-5H-benzo[7]annulen-5-yl)azetidine-1-carboxamide] | < 10 | < 500
9 | CC(C)(C)OC1CN(C(=O)NC2CCCCc3cc(-c4ccnc(Nc5cnn(C6CCOCC6)c5)n4)ccc32)C1 (stereo not drawn) [Example I-179, 3-(tert-butoxy)-N-(2-(2-((1-(tetrahydro-2H-pyran-4-yl)-1H-pyrazol-4-yl)amino)pyrimidin-4-yl)-6,7,8,9-tetrahydro-5H-benzo[7]annulen-5-yl)azetidine-1-carboxamide] | < 10 | < 500
10 | CN1CCC(n2cc(Nc3nccc(-c4ccc5c(c4)CCCCC5NC(=O)N4CC(OC(C)(C)C)C4)n3)cn2)CC1 (stereo not drawn) [Example I-180, 3-(tert-butoxy)-N-(2-(2-((1-(1-methylpiperidin-4-yl)-1H-pyrazol-4-yl)amino)pyrimidin-4-yl)-6,7,8,9-tetrahydro-5H-benzo[7]annulen-5-yl)azetidine-1-carboxamide] | < 10 | < 500
11 | CC(C)(C)OC1CN(C(=O)NC2CCCCc3cc(-c4ccnc(Nc5cnn6c5CCC6)n4)ccc32)C1 (stereo not drawn) [Example I-182, 3-(tert-butoxy)-N-(2-(2-((5,6-dihydro-4H-pyrrolo [1,2-b]pyrazol-3-yl)amino)pyrimidin-4-yl)-6,7,8,9-tetrahydro-5H-benzo[7]annulen-5-yl)azetidine-1-carboxamide] | < 10 | < 500

The remaining lines, values ahead:

Row | IC50 [1] [nM] | IC50 [2] [nM] | SMILES
12 | < 10 | < 500 | CC(C)OC1CN(C(=O)NC2CCCCc3cc(-c4ccnc(Nc5cnn(C6CCOCC6)c5)n4)ccc32)C1 (stereo not drawn) [Example I-172, 3-isopropoxy-N-(2-(2-((1-(tetrahydro-2H-pyran-4-yl)-1H-pyrazol-4-yl)amino)pyrimidin-4-yl)-6,7,8,9-tetrahydro-5H-benzo[7]annulen-5-yl)azetidine-1-carboxamide]
13 | < 10 | < 500 | CC(C)C1CCN(C(=O)NC2CCCCc3cc(-c4ccnc(Nc5cnn(CCO)c5)n4)ccc32)C1 (stereo not drawn) [Example I-181, N-(2-(2-((1-(2-hydroxyethyl)-1H-pyrazol-4-yl)amino)pyrimidin-4-yl)-6,7,8,9-tetrahydro-5H-benzo[7]annulen-5-yl)-3-isopropylpyrrolidine-1-carboxamide]
14 | < 10 | < 500 | COCCn1cc(Nc2nccc(-c3ccc4c(c3)CCCCC4NC(=O)N3CCC(C(C)C)C3)n2)cn1 (stereo not drawn) [Example I-183, 3-Isopropyl-N-(2-(2-((1-(2-methoxyethyl)-1H-pyrazol-4-yl)amino)pyrimidin-4-yl)-6,7,8,9-tetrahydro-5H-benzo[7]annulen-5-yl)pyrrolidine-1-carboxamide]
15 | < 10 | < 500 | CC(C)(C)C1CCN(C(=O)NC2CCCCc3cc(-c4ccnc(Nc5cnn(CCO)c5)n4)ccc32)C1 (stereo not drawn) [Example I-185, 3-(tert-butyl)-N-(2-(2-((1-(2-hydroxyethyl)-1H-pyrazol-4-yl)amino)pyrimidin-4-yl)-6,7,8,9-tetrahydro-5H-benzo[7]annulen-5-yl)pyrrolidine-1-carboxamide]
16 | < 10 | < 500 | COCCn1cc(Nc2nccc(-c3ccc4c(c3)CCCCC4NC(=O)N3CCC(C(C)(C)C)C3)n2)cn1 (stereo not drawn) [Example I-186, 3-(tert-butyl)-N-(2-(2-((1-(2-methoxyethyl)-1H-pyrazol-4-yl)amino)pyrimidin-4-yl)-6,7,8,9-tetrahydro-5H-benzo[7]annulen-5-yl)pyrrolidine-1-carboxamide]
17 | < 10 | < 500 | CC(C)OC1CN(C(=O)NC2CCN(CC(F)(F)F)Cc3cc(-c4ccnc(Nc5cnn(C)c5)n4)ccc32)C1 (stereo not drawn) [Example I-187, 3-isopropoxy-N-(8-(2-((1-methyl-1H-pyrazol-4-yl)amino)pyrimidin-4-yl)-2-(2,2,2-trifluoroethyl)-2,3,4,5-tetrahydro-1H-benzo[c]azepin-5-yl)azetidine-1-carboxamide]
18 | < 10 | 500 to 1500 | CC(C)OC1CN(C(=O)NC2CCN(C3COC3)Cc3cc(-c4ccnc(Nc5cnn(C)c5)n4)ccc32)C1 (stereo not drawn) [Example I-188, 3-isopropoxy-N-(8-(2-((1-methyl-1H-pyrazol-4-yl)amino)pyrimidin-4-yl)-2-(oxetan-3-yl)-2,3,4,5-tetrahydro-1H-benzo[c]azepin-5-yl)azetidine-1-carboxamide]
